{"source": "patent US10479810B2", "about": "“Crystal form of tenofovir alafenamide salt, preparation method and use thereof” (SHANGHAI BEGREAT PHARMATECH, priority 2016, dated 2019)", "conditions": "for TAF total degradation impurities %: mixtures with emtricitabine at weight ratio about 1:15, HPLC", "note": "Like-named read-outs stand apart in the source and are kept apart here.", "experimental": "In this patent, TAF fumarate crystal form I (prepared according to the method of WO2013025788A1), TAF fumarate crystal form II, TAF fumarate crystal form A and TAF fumarate crystal form B and emtricitabine are compared. The mixture was mixed at a weight ratio of about 1:15, placed at 40° C. and a relative humidity of 75%, and placed open for 21 days. The degradation of TAF was analyzed by HPLC at 0 days and 21 day."}
{"molecule": "CC(C)OC(=O)[C@H](C)N[P@](=O)(CO[C@H](C)Cn1cnc2c(N)ncnc21)Oc1ccccc1.O=C(O)/C=C/C(=O)O", "note": "[TAF fumarate Form II, 9-[(R)-2-[[(S)-[[(S)-1-(isopropoxycarbonyl)ethyl]amino]phenoxyphosphinyl]methoxy]propyl]adenine fumarate]", "values": [{"measurement": "chemical compatibility of TAF with emtricitabine", "setting": "compared with TAF hemifumarate crystal form I in combination with emtricitabine", "value": "significantly improve"}]}
{"molecule": "Tenofovir alafenamide hemifumarate [TAF fumarate Form I]", "values": [{"measurement": "TAF total degradation impurities %", "setting": "0 day", "value": 0.1, "unit": "%"}, {"measurement": "TAF total degradation impurities %", "setting": "21 day, 40° C., relative humidity 75%, placed open", "value": 0.9, "unit": "%"}]}
